What was measured:
Type in all cases: physicochemical
[1] = Dynamic vapor sorption (DVS) hygroscopicity
Protocol: Dynamic vapor sorption (DVS) was used to investigate hygroscopicities of an active pharmaceutical ingredient in different crystal forms.
Determination method: • instrument: dynamic vapor sorption analyzer; temperature: 25°C; protective gas and flow rate: N2, 200 mL/min; • dm/dt: 0.002%/min; RH range: 0%RH-100%RH; cycle: 1 full cycle.

[2] = High-humidity test, related substances by HPLC; conditions: 90%RH±5%RH; for Impurity content RRT0.55 / Impurity content RRT0.66 / Impurity content RRT0.71 / Impurity content RRT0.94 / Impurity content RRT1.02 / Impurity content RRT1.06 / Impurity content RRT1.08 / Impurity content RRT1.15 / Total impurities: open
Source text: An investigation method for the high-humidity test can be seen in Table 12 below.
Results of related substances in each crystal form under the high-humidity condition (90%RH±5%RH) can be seen in Table 16.
HPLC detection results of related substances under the high-humidity condition can be seen as follows: Table 16

[3] = Light exposure test, related substances by HPLC
Source text: An investigation method for the light exposure test can be seen in Table 13 below.
Results of related substances in each crystal form under the light exposure condition (4500lx±500lx) can be seen in Table 17.
HPLC detection results of related substances under the light exposure condition can be seen as follows: Table 17

SMILES: C[C@@H](Nc1ccn2ncc(C3=NOC(C)(C)N3)c2n1)c1cc(F)cc(F)c1F [crystal form E]
- Hygroscopicity (conclusion) [1]: had hygroscopicity
- DVS weight loss ([1]; humidity 20% or less): up to 3%
- DVS weight loss ([1]; humidity increased from 0% to 30%): approximately 2%
- DVS weight gain ([1]; humidity increased from 90% to 100%): approximately 4%
- DVS weight loss ([1]; humidity reduced from 100% to 90%): approximately 2%
- Increase of impurity RRT1.02 content ([2]; 32 days): no essential changes
- Increase of impurity RRT1.08 content ([2]; 32 days): 0.04%
- Increase of total impurities ([2]; 32 days): 0.05%
- Impurity content RRT0.55 ([2]; 0 day): 0.04%
- Impurity content RRT0.66 ([2]; 0 day): 0.21%
- Impurity content RRT0.71 ([2]; 0 day): 0.14%
- Impurity content RRT0.94 ([2]; 0 day): 0.03%
- Impurity content RRT1.02 ([2]; 0 day): 0.21%
- Impurity content RRT1.06 ([2]; 0 day): 0.07%
- Impurity content RRT1.08 ([2]; 0 day): 0.17%
- Impurity content RRT1.15 ([2]; 0 day): 0.03%
- Total impurities ([2]; 0 day): 0.89%
- Impurity content RRT0.55 ([2]; 5 days): 0.03%
- Impurity content RRT0.66 ([2]; 5 days): 0.21%
- Impurity content RRT0.71 ([2]; 5 days): 0.15%
- Impurity content RRT0.94 ([2]; 5 days): 0.03%
- Impurity content RRT1.02 ([2]; 5 days): 0.21%
- Impurity content RRT1.06 ([2]; 5 days): 0.05%
- Impurity content RRT1.08 ([2]; 5 days): 0.18%
- Impurity content RRT1.15 ([2]; 5 days): 0.03%
- Total impurities ([2]; 5 days): 0.89%
- Impurity content RRT0.55 ([2]; 11 days): 0.04%
- Impurity content RRT0.66 ([2]; 11 days): 0.21%
- Impurity content RRT0.71 ([2]; 11 days): 0.14%
- Impurity content RRT0.94 ([2]; 11 days): 0.02%
- Impurity content RRT1.02 ([2]; 11 days): 0.20%
- Impurity content RRT1.06 ([2]; 11 days): 0.05%
- Impurity content RRT1.08 ([2]; 11 days): 0.21%
- Impurity content RRT1.15 ([2]; 11 days): 0.03%
- Total impurities ([2]; 11 days): 0.89%
- Impurity content RRT0.55 ([2]; 32 days): 0.04%
- Impurity content RRT0.66 ([2]; 32 days): 0.22%
- Impurity content RRT0.71 ([2]; 32 days): 0.15%
- Impurity content RRT0.94 ([2]; 32 days): 0.05%
- Impurity content RRT1.02 ([2]; 32 days): 0.19%
- Impurity content RRT1.06 ([2]; 32 days): 0.04%
- Impurity content RRT1.08 ([2]; 32 days): 0.21%
- Impurity content RRT1.15 ([2]; 32 days): 0.04%
- Total impurities ([2]; 32 days): 0.94%
- Increase of impurity RRT0.66 content ([3]; 4500 lx±500 lx, 32 days): 0.04%
- Increase of impurity RRT0.71 content ([3]; 4500 lx±500 lx, 32 days): not increased
- Increase of impurity RRT1.02 content ([3]; 4500 lx±500 lx, 32 days): not increased
- Increase of impurity RRT1.08 content ([3]; 4500 lx±500 lx, 32 days): 0.08%
- Increase of total impurities ([3]; 4500 lx±500 lx, 32 days): 0.13%
- Impurity content RRT0.55 ([3]; 4500lx±500lx, open, 0 day): 0.04%
- Impurity content RRT0.66 ([3]; 4500lx±500lx, open, 0 day): 0.21%
- Impurity content RRT0.71 ([3]; 4500lx±500lx, open, 0 day): 0.14%
- Impurity content RRT0.94 ([3]; 4500lx±500lx, open, 0 day): 0.03%
- Impurity content RRT1.02 ([3]; 4500lx±500lx, open, 0 day): 0.21%
- Impurity content RRT1.06 ([3]; 4500lx±500lx, open, 0 day): 0.07%
- Impurity content RRT1.08 ([3]; 4500lx±500lx, open, 0 day): 0.17%
- Impurity content RRT1.15 ([3]; 4500lx±500lx, open, 0 day): 0.03%
- Total impurities ([3]; 4500lx±500lx, open, 0 day): 0.89%
- Impurity content RRT0.55 ([3]; 4500lx±500lx, open, 5 days): 0.03%
- Impurity content RRT0.66 ([3]; 4500lx±500lx, open, 5 days): 0.22%
- Impurity content RRT0.71 ([3]; 4500lx±500lx, open, 5 days): 0.14%
- Impurity content RRT0.94 ([3]; 4500lx±500lx, open, 5 days): 0.02%
